Assay results: ChEMBL document CHEMBL1681651, “A broad spectrum anticancer nucleoside with selective toxicity against human colon cells in vitro” (2011)

Columns and labels:
Format in all cases: functional
[1] = tested on: OVCAR-8; assay: Growth inhibition of human OVCAR8 cells after 48 hrs by […] growth inhibition assay; conditions: OVCAR-8, 48 h
[2] = tested on: SNB-19; assay: Growth inhibition of human SNB19 cells assessed as cell growth at 100 uM after 48 hrs by SRB assay; conditions: SNB-19, 48 h, read-out: Activity
[3] = tested on: MDA-MB-435; assay: Growth inhibition of human MDA-MB-435 cells assessed as cell growth at 100 uM after 48 hrs by SRB assay; conditions: MDA-MB-435, 48 h, read-out: Activity
[4] = tested on: HCC 2998; assay: Growth inhibition of human HCC2998 cells assessed as cell growth at 1 mM after 48 hrs by SRB assay; conditions: HCC 2998, 48 h, read-out: Activity
[5] = tested on: CCRF-CEM; assay: Growth inhibition of human CCRF-CEM cells assessed as cell growth at 1 uM after 48 hrs by SRB assay; conditions: read-out: Activity
[6] = tested on: U-251; assay: Growth inhibition of human U251 cells assessed as cell growth at 100 uM after 48 hrs by SRB assay; conditions: U-251, 48 h, read-out: Activity
[7] = tested on: MDA-MB-231; assay: Growth inhibition of human MDA-MB-231 cells assessed as cell growth at 10 uM after 48 hrs by SRB assay; conditions: MDA-MB-231, 48 h, read-out: Activity
[8] = tested on: UO-31; assay: Growth inhibition of human UO31 cells assessed as cell growth at 1 mM after 48 hrs by SRB assay; conditions: UO-31, 48 h, read-out: Activity
[9] = tested on: A498; assay: Growth inhibition of human A498 cells assessed as cell growth at 1 uM after 48 hrs by SRB assay; conditions: A498, 48 h, read-out: Activity
[10] = tested on: SK-OV-3; assay: Growth inhibition of human SKOV3 cells after 48 hrs by […] growth inhibition assay; conditions: SK-OV-3, 48 h
[11] = tested on: SNB-75; assay: Growth inhibition of human SNB75 cells after 48 hrs by […] growth inhibition assay; conditions: SNB-75, 48 h
[12] = tested on: A549; assay: Growth inhibition of human A549 cells assessed as cell growth at 0.1 uM after 48 hrs by SRB assay; conditions: A549, 48 h, read-out: Activity
[13] = tested on: NCI/ADR-RES; assay: Growth inhibition of human NCI/ADR-RES cells assessed as cell growth at 1 uM after 48 hrs by SRB assay; conditions: read-out: Activity
[14] = tested on: IGROV-1; assay: Growth inhibition of human IGROV1 cells assessed as cell growth at 0.1 uM after 48 hrs by SRB assay; conditions: IGROV-1, 48 h, read-out: Activity
[15] = tested on: MDA-MB-468; assay: Growth inhibition of human MDA-MB-468 cells after 48 hrs by […] growth inhibition assay; conditions: MDA-MB-468, 48 h, read-out: LC50 (the source's name)
[16] = tested on: OVCAR-5; assay: Growth inhibition of human OVCAR5 cells after 48 hrs by […] growth inhibition assay; conditions: OVCAR-5, 48 h
[17] = tested on: SR; assay: Growth inhibition of human SR cells assessed as cell growth at 10 uM after 48 hrs by SRB assay; conditions: read-out: Activity
[18] = tested on: SK-MEL-5; assay: Growth inhibition of human SK-MEL-5 cells assessed as cell growth at 1 mM after 48 hrs by SRB assay; conditions: SK-MEL-5, 48 h, read-out: Activity
[19] = tested on: SF-295; assay: Growth inhibition of human SF295 cells after 48 hrs by […] growth inhibition assay; conditions: SF-295, 48 h
[20] = tested on: HCT-15; assay: Growth inhibition of human HCT15 cells assessed as cell growth at 100 uM after 48 hrs by SRB assay; conditions: HCT-15, 48 h, read-out: Activity
[21] = tested on: M14; assay: Growth inhibition of human M14 cells assessed as cell growth at 1 uM after 48 hrs by SRB assay; conditions: M14, 48 h, read-out: Activity
[22] = tested on: HOP-62; assay: Growth inhibition of human HOP62 cells after 48 hrs by […] growth inhibition assay; conditions: HOP-62, 48 h
[23] = tested on: M14; assay: Growth inhibition of human M14 cells after 48 hrs by […] growth inhibition assay; conditions: M14, 48 h
[24] = tested on: NCI-H322M; assay: Growth inhibition of human NCI-H322M cells after 48 hrs by […] growth inhibition assay
[25] = tested on: OVCAR-3; assay: Growth inhibition of human OVCAR3 cells assessed as cell growth at 10 uM after 48 hrs by SRB assay; conditions: OVCAR-3, 48 h, read-out: Activity
[26] = tested on: HT-29; assay: Growth inhibition of human HT-29 cells assessed as cell growth at 1 uM after 48 hrs by SRB assay; conditions: HT-29, 48 h, read-out: Activity
[27] = tested on: OVCAR-5; assay: Growth inhibition of human OVCAR5 cells assessed as cell growth at 100 uM after 48 hrs by SRB assay; conditions: OVCAR-5, 48 h, read-out: Activity
[28] = tested on: NCI-H460; assay: Growth inhibition of human NCI-H460 cells assessed as cell growth at 1 uM after 48 hrs by SRB assay; conditions: NCI-H460, 48 h, read-out: Activity
[29] = tested on: Malme-3M; assay: Growth inhibition of human MALME-3M cells after 48 hrs by […] growth inhibition assay
[30] = read-out: LC50 (the source's name)
[31] = read-out: pLC50 (the source's name) (converted)

`CCOC(=O)C[C@H]1[C@@H](O[Si](C)(C)C(C)(C)C)[C@H](n2cnc3c(NC(=O)Nc4ccccc4)ncnc32)O[C@@H]1CNC(=O)NC` was tested, and the GI50 ([1]; read-out: GI50) was 4.92 µM, the CC50 [1, 30] was over 100 µM and the TGI ([1]; read-out: TGI) was 77.2 µM. It also gave a GI50 ([1]; read-out: pGI50 (converted)) of 4.9 µM, a CC50 [1, 31] of over 100 µM and a TGI ([1]; read-out: pTGI (converted)) of 77.6 µM. It also gave a growth at 100 µM [2] of 82%, a growth at 100 µM [3] of 40% and a growth at 1000 µM [4] of 62%. It also gave a growth at 1 µM [5] of 100%, a growth at 100 µM [6] of 28% and a growth at 10 µM [7] of 94%. For the same compound, the growth at 1000 µM [8] was -69%, the growth at 1 µM [9] was 92% and the GI50 ([10]; read-out: GI50) was 21 µM. It also gave a CC50 [10, 30] of over 100 µM, a TGI ([10]; read-out: TGI) of over 100 µM and a GI50 ([10]; read-out: pGI50 (converted)) of 20.9 µM. For the same compound, the CC50 [10, 31] was over 100 µM, the TGI ([10]; read-out: pTGI) was over 100 µM and the GI50 ([11]; read-out: GI50) was 4.56 µM. The CC50 [11, 30] was over 100 µM, the TGI ([11]; read-out: TGI) was over 100 µM and the GI50 ([11]; read-out: pGI50 (converted)) was 4.57 µM. The CC50 [11, 31] was over 100 µM, the TGI ([11]; read-out: pTGI (converted)) was over 100 µM and the growth at 0.1 µM [12] was 102%. For the same compound, the growth at 1 µM [13] was 107%, the growth at 0.1 µM [14] was 94% and the CC50 [15] was over 100 µM. It also gave a GI50 ([16]; read-out: GI50) of 31.1 µM, a CC50 [16, 30] of over 100 µM and a TGI ([16]; read-out: TGI) of over 100 µM. For the same compound, the GI50 ([16]; read-out: pGI50 (converted)) was 30.9 µM, the CC50 [16, 31] was over 100 µM and the TGI ([16]; read-out: pTGI (converted)) was over 100 µM. The growth at 10 µM [17] was 85%, the growth at 1000 µM [18] was 11% and the GI50 ([19]; read-out: GI50) was 5.73 µM. The LC50 ([19]; read-out: LC50) was over 100 µM, the TGI ([19]; read-out: TGI) was over 100 µM and the GI50 ([19]; read-out: pGI50 (converted)) was 5.75 µM. It also gave an LC50 ([19]; read-out: pLC50 (converted)) of over 100 µM, a TGI ([19]; read-out: pTGI (converted)) of over 100 µM and a growth at 100 µM [20] of 47%. The growth at 1 µM [21] was 82%, the GI50 ([22]; read-out: GI50) was 8.96 µM and the CC50 [22, 30] was 73.1 µM. The TGI ([22]; read-out: TGI) was 26.4 µM, the GI50 ([22]; read-out: pGI50 (converted)) was 8.91 µM and the CC50 [22, 31] was 72.4 µM. For the same compound, the TGI ([22]; read-out: pTGI (converted)) was 26.3 µM, the GI50 ([23]; read-out: GI50) was 2.51 µM and the CC50 [23, 30] was 78.6 µM. It also gave a TGI ([23]; read-out: TGI) of 11.6 µM, a GI50 ([23]; read-out: pGI50 (converted)) of 2.51 µM and a CC50 [23, 31] of 79.4 µM. For the same compound, the TGI ([23]; read-out: pTGI (converted)) was 11.5 µM, the GI50 ([24]; read-out: GI50) was over 100 µM and the CC50 [24, 30] was over 100 µM. For the same compound, the TGI ([24]; read-out: TGI) was over 100 µM, the GI50 ([24]; read-out: pGI50 (converted)) was over 100 µM and the CC50 [24, 31] was over 100 µM. It also gave a TGI ([24]; read-out: pTGI) of over 100 µM, a growth at 10 µM [25] of 116% and a growth at 1 µM [26] of 105%. The growth at 100 µM [27] was 72%, the growth at 1 µM [28] was 102% and the GI50 ([29]; read-out: GI50) was 10.3 µM. It also gave an LC50 (concentration killing 50% of cells) ([29]; read-out: LC50) of over 100 µM, a TGI ([29]; read-out: TGI) of over 100 µM and a GI50 ([29]; read-out: pGI50 (converted)) of 10.2 µM. The LC50 (concentration killing 50% of cells) ([29]; read-out: pLC50 (converted)) was over 100 µM and the TGI ([29]; read-out: pTGI (converted)) was over 100 µM.
